The test system of series [1] is style-specific S RNase of Fuji apple. As to the kind of experiment: Inhibition of the activity of a style-specific S RNase by the agents. Type of series: biochemical. The following applies: optical density at 260 nm (A260), agent 2.0 mM, no treatment 1.10. Here is the method:
Inhibition of S RNase activity by an agent of the present invention was measured as follows: The standard solution of 500 μL of 10 mM sodium phosphate (pH 7.0) with an agent (2.0 mM), and 500 μL of torula yeast rRNA (5 mg/mL) was pre-incubated for 10 min at 37° C. To the substrate solution, the 20 μL of the style-specific S RNase (200 ng) of Fuji apple was added, then the solution was incubated for 30 min at 37° C. A fraction of 200 μL was collected and 40 μL of stop buffer (ice-cold 25% HCIO4, 0.75% uranyl acetate) was added, then mixed and centrifuged at 12,000 rpm for 5 min. And 50 μL of the supernatant was diluted with 950 μL of dd H2O, then the solution was centrifuged and measured the optical density at 260 nm (A260) (Singh A. et al., Plant Physilolgy, 96: 61-68,1991).

Series [2] deals with Hongro apple flowers. The series can be described thus: Side-effect of the agents toward Hongro apple flowers. Set-up: key: 0: no side-effect is observed, and it is same as no treatment of the agents; 1: the side-effect are observed in flowers, but they recover to normal fruition in a week; 2: a fall-out of flowers and 10% decrease in fruition rate; 3: about 40% loss; 4: 60% loss; 5: a severe loss in fruition. The format is in vivo. Here is the method:
To investigate the side-effect of the agent, various concentrations of the agents were treated to the flowers of Hongro apple.

The test system of series [3] is 20-Century pear. The series can be described thus: Breakdown of the self-incompatibility in 20-century pear (fertilization rate, field). Type of series: in vivo. The following applies: 600 μM, sprayed 5 and 2 days before full bloom, 14 days after the treatment. As for the experimental part: In a field test, 20-Century pear (the Rosaceae) which has self-incompatibility system was isolated single-genetically by covering up selected branches or whole plants with a fine-meshed net to exclude any pollinating insects. The aqueous of 600 μM solution of an agent of the present invention was treated enough to get-wet flowers with a micro-spray at 9:00-11:00 AM. The agent solution was micro-sprayed 2 times; first at 5 days before full bloom and second at 2 days before full bloom. The reference was artificial cross-pollination at full bloom. The fertilization rate was investigated 14 days after the treatment and compared with no treatment and artificial cross-pollination.

Series [4] deals with Safinia purple. The series can be described thus: Breakdown of self-incompatibility and seed production of Safinia purple. Type of series: in vivo, Safinia purple (petunia). As for the experimental part: To establish the application method of the SI suppressing agent for the seed production, a field experiment was performed with Safinia purple ( the Solanaceae, a petunia developed by Suntory Ltd).
To a 15 cm-radii round pot, were added fine soil (pH 5.6) and 2 gr of complex fertilizer (including N, P, K 8% each) and they were mixed well. Safinia purple of 10 cm height were planted and raised in a green house for 2 weeks. At the period of 30 % bloom the diluted aqueous solutions of Zn(II) propionate or Cu(II) propionate agent were micro-sprayed enough to wet a flower and a style(3 ml). Two days after treatment of the agent, self-pollen was pollinated to its own style and the seed production was investigated. The experiments were repeated twice.

For series [5], the system named is Lycopersicon peruvianum. As to the kind of experiment: Breakdown of the self-incompatibility in Lycopersicon peruvianum (fruition rate, greenhouse). Type of series: in vivo. Conditions: agent 0.1 mM. Here is the method:
To verify the inhibition of a style-specific S RNase and the suppression of SI system with an agent of the present invention in a practical cultivating Environment, a wild-type tomato (Lycopersicon peruvianum) which has a gametophytic SI system was cultivated in a greenhouse at genetically insulated environment and was treated with an S RNase inhibitor of the present invention.
To determine the treatment period of an S RNase inhibitor, the inhibitor was applied to flowers either at the early blooming period (budding formation period to full blooming), or the middle blooming period (full blooming), or the late blooming period (1 day after full blooming period of petal), respectively. Each inhibitors in 0.1 mM aqueous solution (except the ZnSO4 (1 mM) and CuSO4 (1.0 mM) solution) was treated enough to get-wet flowers ith a micro-spray at 9:00-11:00 AM when the pollination of plant occurs most actively. The experiment with 25 blooming flowers (organ containing a stamen, a stigma, a petal, etc.) was repeated 4 times and the fruition rate ws investigated and the results are shown in Table 2.

Series [6] deals with Hongro apple. The series can be described thus: Breakdown of the self-incompatibility in Hongro apple (self-pollination rate, field). Type of series: in vivo. Conditions: 25 days after the treatment. As for the experimental part:
In the field application experiment, Hongro apple (the Rosaceae) which has a very low self-pollination rate (<5%) was isolated single-genetically by covering up whole plants with a fine-meshed net to exclude any pollinating insects. The agent of the present invention was treated enough to get-wet flowers at various concentrations with a micro-spray at 9:00-11:00 AM. The target of the agent was the first-blooming primary apple flower. The self-pollination rate was investigated 25 days after the treatment and compared with no treatment and artificial cross-pollination.

On to `CCC(=O)[O-].CCC(=O)[O-].[Cu+2]` [Cu(II) Propionate], for which the “OD (2.0 mM)” value in series [1] was 0.73. In addition, the side-effect index worked out at 0 in series [2] (1.0 mM), 0 in series [2] (5.0 mM) and 1 in series [2] (20.0 mM). In addition, the fertilization rate in series [3] was 53%. The “seed production relative (%) to control” value in series [4] (concn 10 μM) was 485.7%; in series [4] (concn 30 μM), 1714.3%; in series [4] (concn 100 μM) it was 2228.6%; in series [4] (concn 300 μM) it was 1471.4%; in series [4] (concn 1000 μM), 2342.9%. In addition, the “self-pollination pollination ratio (%)” value is 47.6% in series [4] (concn 10 μM); 52.1% in series [4] (concn 30 μM); 82.6% in series [4] (concn 100 μM); 74.3% in series [4] (concn 300 μM); 76.2% in series [4] (concn 1000 μM). Further, the “self-pollination relative (%) to control” value in series [4] (concn 10 μM) worked out at 2000%; in series [4] (concn 30 μM), 2500%; in series [4] (concn 100 μM), 3800%; in series [4] (concn 300 μM) it was 2600%; in series [4] (concn 1000 μM), 3200%.

In the case of `COCCOCC(=O)[O-].COCCOCC(=O)[O-].[Zn+2]` [Zn(II) 2-methoxyethoxyacetate], the “OD (2.0 mM)” value in series [1] worked out at 0.64. Besides, the fruition rate in series [5] (treated 1 day after full blooming) is 0%; in series [5] (treated 1 day before full blooming), above 60%; in series [5] (treated 2 days after full blooming), 0%; in series [5] (treated 2 days before full blooming), above 50%; in series [5] (treated 3 days before full blooming), above 10%; in series [5] (treated 4 days before full blooming), below 10%. Further, the fruition rate is 0% in series [5] (treated 5 days before full blooming), 0% in series [5] (treated 6 days before full blooming), 0% in series [5] (treated 7 days before full blooming) and above 40% in series [5] (treated at full blooming (0 day)). The self-pollination rate in series [6] (concentration 0.01 mM) is listed as above 10%; in series [6] (concentration 0.03 mM), above 40%; in series [6] (concentration 0.10 mM), above 60%; in series [6] (concentration 0.30 mM), above 60%; in series [6] (concentration 1.0 mM), above 60%. The results for the side-effect index in series [2] (1.0 mM), in series [2] (5.0 mM) and in series [2] (20.0 mM) were 0, 0 and 1, respectively. Further, the fertilization rate in series [3] is listed as 53%.

On to `CCC(=O)[O-].CCC(=O)[O-].[Zn+2]` [Zn(II) Propionate], for which the “OD (2.0 mM)” value in series [1] stood at 0.69. Also, the self-pollination rate is listed as above 10% in series [6] (concentration 0.01 mM); above 30% in series [6] (concentration 0.03 mM); above 50% in series [6] (concentration 0.10 mM); above 50% in series [6] (concentration 0.30 mM); above 50% in series [6] (concentration 1.0 mM). The side-effect index in series [2] (1.0 mM) is on record as 0; in series [2] (5.0 mM) it was 0; in series [2] (20.0 mM) it was 1. In series [3], the fertilization rate is 45%. The “seed production relative (%) to control” value in series [4] (concn 10 μM) is 514.3%; in series [4] (concn 30 μM), 442.9%; in series [4] (concn 100 μM), 1057.1%; in series [4] (concn 300 μM) it was 1128.6%; in series [4] (concn 1000 μM) it was 1628.6%. The “self-pollination pollination ratio (%)” value in series [4] (concn 10 μM) stood at 29.4%; in series [4] (concn 30 μM) it was 42.4%; in series [4] (concn 100 μM), 47.1%; in series [4] (concn 300 μM), 63.6%; in series [4] (concn 1000 μM), 64.5%. Also, the “self-pollination relative (%) to control” value in series [4] (concn 10 μM) was found to be 1000%; in series [4] (concn 30 μM), 1400%; in series [4] (concn 100 μM) it was 1600%; in series [4] (concn 300 μM), 2100%; in series [4] (concn 1000 μM) it was 2000%.

The values above are taken from patent US20050032646A1, “Agents for the regulation of gametophytic self-incompatibility and a control method for the breakdown of gametophytic self-incompatibility using the agents” (priority 2002, published 2005).
